The source of these data is patent US20230226259A1, “NANOFIBER CARDIAC PATCH AND METHODS OF USE THEREOF” (Ohio State Innovation Foundation, priority 2020, published 2023).

Data set [1] relates to COVID-19 patients. As to conditions: cited from earlier work.
Data set [2] relates to hiCMs.
Data set [3] concerns hiPSC-CMs cultured on aligned coaxial patches. The experiment in a line: Particle image velocimetry (PIV) optical contractility of aligned coaxial cardiac patch. The data set is classed as cell-based, human. The note with it: 100 nM, patches at two weeks of culture. The protocol: Cross-correlation (“PIV”) analysis of images. Cell contractility kinetics were assessed using the optical flow/PIV method. Briefly, a motion pattern (velocity field) captured on a pair of images was calculated by dividing the first image into overlapping tiles, each 64 pixels wide. The second image was then scanned pixel-by-pixel, by shifting an equally sized (64×64 pixels) window. The most similar (by Euclidean distance) tile on the second image was then assumed to be the location where the pattern in the first image moved. The resulting displacement vectors characterizing each image tile were then interpolated and denoised by a thin-plate spline fit, yielding a coarse displacement field. The coarse estimate was used to construct a second, higher resolution displacement field. […] Fourier spectra were calculated from D(t) beat patterns using the discrete Fourier transform algorithm. Power densities were calculated as the magnitudes of the squared Fourier spectra, and indicate periodicity within the signal in the form of peaks at the corresponding frequencies. When the analyzed signal is not a pure sine wave, harmonics are expected to appear at integer multiples of the fundamental frequency f(2f, 3f, etc). […]

The test system of data set [4] is hiPSC-CMs. The experiment in a line: Multi-electrode array (MEA) field potentials of hiPSC-CMs cultured in 2-D or on aligned coaxial patches (3-D) after cardiac drugs. Format: cell-based, human. As to conditions: for beating frequency (beats per minute): change after treatment.
Data set [5] concerns fertilized chicken eggs. Nature of the data set: In ovo CAM assay. Format: in vivo. The note with it: in Geltrex carrier, 5 days. The protocol: The angiogenic potential of bFGF loaded PDA-NPs and DPDA-NPs was evaluated by using fertilized chicken eggs. The eggs were incubated in a hatching incubator for 5 days, following the incubation the viable eggs were selected and grouped as follows (bFGF+Geltrex, bFGF-PDA-NPs+Geltrex, bFGF-DPDA-NPs+Geltrex and only Geltrex). A window was made on the eggshell and a sterilized nylon mesh was placed inside the egg. The test samples were loaded on the nylon mesh and the window was covered by placing a 35 mm plate and secured by using tape. The eggs were further incubated for 5 days, following which it was carefully dissected to retrieve the nylon mesh and imaged using a stereomicroscope (Leica).

Turning to `CCN(CCO)CCCC(C)Nc1ccnc2cc(Cl)ccc12` (stereo not shown) [HCQ, hydroxychloroquine], the QT interval entry in data set [1] (COVID-19 / SARS-CoV-2 patients) was “QT prolongation”. Besides, the “association between treatment and consequent intubation or death” value in data set [1] (New York study (Geleris et al)) is listed as “no significant association”. Further, the recovery of patients entry in data set [1] (randomized clinical trial, administration for 5 days) is “improved recovery”. In data set [2], the cell death entry is given as “increased”; the cell viability result was “decreased”; the “electrophysiological function (MEA and patch clamp)” value was “considerable changes”.

Turning to `CC(C)NCC(O)c1ccc(O)c(O)c1` (stereo not shown) [ISO, Isoproterenol], the “spontaneous beat amplitude (beat patterns)” value in data set [3] was “increase”. The “average frequency of spontaneous beating” value in data set [3] (mean +- SEM, untreated 0.136 Hz) is 1.497+−0.0394 Hz. For the same compound, the beat period in data set [4] (2-D culture, 10 nM ISO) is 0.67 ± 0.04 s; in data set [4] (2-D culture, 100 nM ISO), 0.66 ± 0.03 s; in data set [4] (3-D culture (aligned coaxial patch), 10 nM ISO) it was 0.8 ± 0.15 s; in data set [4] (3-D culture (aligned coaxial patch), 100 nM ISO), 0.66 ± 0.1 s. For the same compound, in data set [4] (both 2-D and 3-D cultures), the “Fridericia-corrected field potential duration (FPDc), change vs baseline” value is given as “dose-dependent shortening of the QT interval”. In addition, in data set [4] (both 2-D and 3-D cultures), the “beat period, change vs baseline” value is listed as “significant dose-dependent decrease”. Moreover, the “beating frequency (beats per minute)” value in data set [4] (both 2-D and 3-D cultures) is reported as “increase”.

As for `COc1ccc(CCN(C)CCCC(C#N)(c2ccc(OC)c(OC)c2)C(C)C)cc1OC` (stereo not shown) [Verapamil], the “FPDc, change with dose” value in data set [4] (3-D culture only, 0.1 μM and 0.3 μM) is reported as “dose-dependent decrease”. Besides, in data set [4] (both 2-D and 3-D cultures), the “beat period, change vs baseline” value is reported as “significant fold decrease” and the “beating frequency (beats per minute)” value is on record as “increase”.

Regarding bFGF: basic fibroblast growth factor, the “new blood vessel formation on nylon mesh” value in data set [5] is on record as “remarkable angiogenesis”.
